These results are taken from patent US12187773B2, “Modified GIP peptide analogues” (Antag Therapeutics ApS, priority 2018, dated 2025).

The term IC50 denotes the concentration that gives 50% inhibition.

What all share (assay type): cell-based
Test [1] deals with T1, human GIP receptor (Homo sapiens, UniProt P48546).
T1 sequence (P48546 22-466): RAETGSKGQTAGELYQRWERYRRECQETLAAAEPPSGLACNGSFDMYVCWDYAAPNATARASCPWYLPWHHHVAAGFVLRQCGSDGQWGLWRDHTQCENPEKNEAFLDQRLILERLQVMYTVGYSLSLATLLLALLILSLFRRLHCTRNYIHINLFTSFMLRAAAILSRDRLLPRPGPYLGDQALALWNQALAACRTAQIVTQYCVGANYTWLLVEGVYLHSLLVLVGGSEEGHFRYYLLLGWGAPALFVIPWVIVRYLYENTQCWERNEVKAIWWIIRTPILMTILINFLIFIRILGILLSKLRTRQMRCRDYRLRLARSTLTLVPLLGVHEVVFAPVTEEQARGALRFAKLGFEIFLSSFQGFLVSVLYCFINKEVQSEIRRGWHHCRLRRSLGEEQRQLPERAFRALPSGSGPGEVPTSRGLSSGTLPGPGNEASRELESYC
Kind of test: cAMP antagonism (CisBio cAMP Dynamic 2 HTRF assay). Also on record: pCMV-Script vector. To be noted: Table 1C, CisBio, HEK-293 cells; for IC50: cAMP antagonism, nM (IC50), agonist GIP1-42 at EC50. The essentials:
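Four-parameter fits of cAMP dose-response gave pIC50. cAMP fall was quantified by HTRF competition, ratio 665/620 nm after 60 min at room temperature, against a cAMP standard curve.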
Background: TR-FRET usually uses a lanthanide donor and a delayed reading to cut background.

Test [2] deals with T1, human GIP receptor. Kind of test: cAMP accumulation, agonism (DiscoveRx HitHunter cAMP XS assay). Also on record: host or cells: COS-7 (transient, calcium phosphate; pCMV-Script vector). To be noted: Table 1B; DiscoveRx; COS-7 cells. The procedure, abridged:
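cAMP accumulation measured by HitHunter cAMP XS in COS-7 cells transiently expressing human GIP receptor, after 30 min in HBS with 1 mM IBMX at 37 °C. Antagonists preincubated 10 min before GIP giving 50-80% of maximum, then 20 min more; agonist mode used 30 min ligand exposure.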
(cAMP levels reflect the balance of adenylyl cyclase and phosphodiesterase activity.)

The target in test [3] is T1, human GIP receptor. Kind of test: cAMP accumulation, antagonism (DiscoveRx HitHunter cAMP XS assay). Also on record: host or cells: COS-7 (transient, calcium phosphate; pCMV-Script vector). To be noted: Table 1B, DiscoveRx; for cAMP antagonism, % inhib: COS-7 cells, % inhibition of Emax; for IC50: cAMP antagonism, nM (IC50), transiently transfected COS-7 cells. Here is the method: Transient transfected COS-7 cells expressing the human GIP receptor were seeded in white 96-well plates with a density of 3.5*10^4/well. The day after, the cells were washed twice with Hepes buffered saline (HBS) buffer and incubated with HBS and 1 mM 3-isobutyl-1-methylxanthine (IBMX) for 30 min at 37° C. To test for agonistic properties, ligands were added and incubated for 30 min at 37° C. In order to test for antagonistic properties, the cells were preincubated with the antagonists for 10 min prior to the addition of the agonist and subsequent incubated for 20 additional min. The HitHunter™ cAMP XS assay (DiscoveRx) was carried out according to the manufacturer's instructions.
In order to develop a GIP receptor antagonist with improved antagonistic properties, individual amino acid substitutions were conducted on GIP(3-30)NH2 and in particular at positions: 16, 18, 30 or 3, 16, 18, 30. The obtained peptides were lipidated at position 18 directly or via a linker. Both the agonistic and antagonistic profiles of the compounds were tested in cAMP accumulation experiments done in transiently transfected COS-7 cells expressing the human GIP receptor. To investigate if these mutated analogues still retained their antagonistic properties, their ability to inhibit a GIP-mediated cAMP response corresponding to 50-80% of maximum activation was examined.

Test [4] concerns the target T1, human GIP receptor. Kind of test: cAMP agonism (CisBio cAMP Dynamic 2 HTRF assay). Particulars: HEK293, read-out: cAMP agonism, % Efficacy, Table 1C, HEK-293 cells. Here is the method: To test for agonistic properties at the GIP receptor, compounds were diluted and added to cells as described above and incubated for 30 min at 37° C. The resulting increase in intracellular cAMP was determined using the CisBio cAMP Dynamic 2 HTRF Assay Kit as described above.

*1 amine or outer side, *2 acyl side, *3 side chain or, on linkers, in order; H or OH if unused. Where a SMILES comes first, the peptide text is derived from it. Side-chain parts run from the residue outwards. [ ]: non-standard residue; d: D form. The star is where a group is joined. C18 diacid = O=C(O)CCCCCCCCCCCCCCCCC(=O)*; C16 diacid = O=C(O)CCCCCCCCCCCCCCC(=O)*; γGlu = O=C(O)[C@H](CCC(=O)[*:2])N[*:1]; pGlu = O=C1CC[C@@H](C(=O)O)N1; AEEA = NCCOCCOCC(=O)O

As for `CC[C@H](C)[C@H](NC(=O)[C@H](CO)NC(=O)[C@H](Cc1ccc(O)cc1)NC(=O)[C@H](CC(=O)O)NC(=O)[C@H](CO)NC(=O)[C@@H](NC(=O)[C@H](Cc1ccccc1)NC(=O)[C@@H](NC(=O)CNC(=O)[C@@H](N)CCC(=O)O)[C@@H](C)O)[C@@H](C)CC)C(=O)N[C@@H](C)C(=O)N[C@@H](CCSC)C(=O)N[C@@H](CC(=O)O)C(=O)N[C@@H](CCCNC(=N)N)C(=O)N[C@H](C(=O)N[C@@H](CCCCNC(=O)COCCOCCNC(=O)COCCOCCNC(=O)COCCOCCNC(=O)CC[C@H](NC(=O)CCCCCCCCCCCCCCC(=O)O)C(=O)O)C(=O)N[C@@H](CCC(N)=O)C(=O)N[C@@H](CCC(N)=O)C(=O)N[C@@H](CC(=O)O)C(=O)N[C@@H](Cc1ccccc1)C(=O)N[C@H](C(=O)N[C@@H](CC(N)=O)C(=O)N[C@@H](Cc1c[nH]c2ccccc12)C(=O)N[C@@H](CC(C)C)C(=O)N[C@@H](CC(C)C)C(=O)N[C@@H](C)C(=O)N[C@@H](CCC(N)=O)C(=O)N[C@@H](CCCNC(=N)N)C(N)=O)C(C)C)[C@@H](C)CC` [AT375] (H-EGTFISDYSIAMDRIK([AEEA-AEEA-AEEA-γGlu-C16 diacid])QQDFVNWLLAQR-NH2; N-terminus assumed), on human GIP receptor [1], the “cAMP antagonism, % inhib” value was 83% and the IC50 amounted to 23.3 nM. For the same molecule, the “cAMP agonism, Emax” value at human GIP receptor [2] is “No Agonism”. Further, at human GIP receptor [3], the “cAMP antagonism, % inhib” value was 100%. Also, the Emax on human GIP receptor [4] worked out at 6%.
In the case of `CC[C@H](C)[C@H](NC(=O)[C@H](CO)NC(=O)[C@H](Cc1ccc(O)cc1)NC(=O)[C@H](CC(=O)O)NC(=O)[C@H](CO)NC(=O)[C@@H](NC(=O)[C@H](Cc1ccccc1)NC(=O)[C@@H](NC(=O)CNC(=O)[C@@H](N)CCC(=O)O)[C@@H](C)O)[C@@H](C)CC)C(=O)N[C@@H](C)C(=O)N[C@@H](CCSC)C(=O)N[C@@H](CC(=O)O)C(=O)N[C@@H](CCCNC(=N)N)C(=O)N[C@H](C(=O)N[C@@H](CCCCNC(=O)COCCOCCNC(=O)CC[C@H](NC(=O)CCCCCCCCCCCCCCCCC(=O)O)C(=O)O)C(=O)N[C@@H](CCC(N)=O)C(=O)N[C@@H](CCC(N)=O)C(=O)N[C@@H](CC(=O)O)C(=O)N[C@@H](Cc1ccccc1)C(=O)N[C@H](C(=O)N[C@@H](CC(N)=O)C(=O)N[C@@H](Cc1c[nH]c2ccccc12)C(=O)N[C@@H](CC(C)C)C(=O)N[C@@H](CC(C)C)C(=O)N[C@@H](C)C(=O)N[C@@H](CCC(N)=O)C(=O)N[C@@H](CCCNC(=N)N)C(N)=O)C(C)C)[C@@H](C)CC` [AT376] (HELM PEPTIDE1{E.G.T.F.I.S.D.Y.S.I.A.M.D.R.I.K.Q.Q.D.F.V.N.W.L.L.A.Q.R.[am]}|PEPTIDE2{[O=C(O)CCCCCCCCCCCCCCCCC(=O)[*:2]].[gGlu].[O=C(COCCOCCN[*:1])[*:2]]}$PEPTIDE1,PEPTIDE2,16:R3-3:R2$$$V2.0; N-terminus assumed), the “cAMP antagonism, % inhib” value came out at 87% at human GIP receptor [1] and 90% at human GIP receptor [3]. Besides, the figures for the IC50 on human GIP receptor [1] and at human GIP receptor [3] were 6.81 nM and 19 nM, respectively. For the same molecule, the “cAMP agonism, Emax” value at human GIP receptor [2] is given as “No Agonism”. Moreover, the Emax at human GIP receptor [4] stood at 0%.
As for `CC[C@H](C)[C@H](NC(=O)[C@H](CO)NC(=O)[C@H](Cc1ccc(O)cc1)NC(=O)[C@H](CC(=O)O)NC(=O)[C@H](CO)NC(=O)[C@@H](NC(=O)[C@H](Cc1ccccc1)NC(=O)[C@@H](NC(=O)CNC(=O)[C@@H](N)CCC(=O)O)[C@@H](C)O)[C@@H](C)CC)C(=O)N[C@@H](C)C(=O)N[C@@H](CCSC)C(=O)N[C@@H](CC(=O)O)C(=O)N[C@@H](CCCNC(=N)N)C(=O)N[C@H](C(=O)N[C@@H](CCCCNC(=O)COCCOCCNC(=O)COCCOCCNC(=O)CC[C@H](NC(=O)CCCCCCCCCCCCCCCCC(=O)O)C(=O)O)C(=O)N[C@@H](CCC(N)=O)C(=O)N[C@@H](CCC(N)=O)C(=O)N[C@@H](CC(=O)O)C(=O)N[C@@H](Cc1ccccc1)C(=O)N[C@H](C(=O)N[C@@H](CC(N)=O)C(=O)N[C@@H](Cc1c[nH]c2ccccc12)C(=O)N[C@@H](CC(C)C)C(=O)N[C@@H](CC(C)C)C(=O)N[C@@H](C)C(=O)N[C@@H](CCC(N)=O)C(=O)N[C@@H](CCCNC(=N)N)C(N)=O)C(C)C)[C@@H](C)CC` [AT377] (H-EGTFISDYSIAMDRIK([AEEA-AEEA-γGlu-C18 diacid])QQDFVNWLLAQR-NH2; N-terminus assumed), the “cAMP antagonism, % inhib” value on human GIP receptor [1] worked out at 90%. Further, the “cAMP agonism, Emax” value on human GIP receptor [2] was “No Agonism”. Besides, on human GIP receptor [3], the “cAMP antagonism, % inhib” value came to 100% and the IC50 came out at 19 nM. In addition, the Emax at human GIP receptor [4] stood at 0%.
The matching figures for `CC[C@H](C)[C@H](NC(=O)[C@H](CO)NC(=O)[C@H](Cc1ccc(O)cc1)NC(=O)[C@H](CC(=O)O)NC(=O)[C@H](CO)NC(=O)[C@@H](NC(=O)[C@H](Cc1ccccc1)NC(=O)[C@@H](NC(=O)CNC(=O)[C@@H](N)CCC(=O)O)[C@@H](C)O)[C@@H](C)CC)C(=O)N[C@@H](C)C(=O)N[C@@H](CCSC)C(=O)N[C@@H](CC(=O)O)C(=O)N[C@@H](CCCNC(=N)N)C(=O)N[C@H](C(=O)N[C@@H](CCCCNC(=O)COCCOCCNC(=O)COCCOCCNC(=O)COCCOCCNC(=O)CC[C@H](NC(=O)CCCCCCCCCCCCCCCCC(=O)O)C(=O)O)C(=O)N[C@@H](CCC(N)=O)C(=O)N[C@@H](CCC(N)=O)C(=O)N[C@@H](CC(=O)O)C(=O)N[C@@H](Cc1ccccc1)C(=O)N[C@H](C(=O)N[C@@H](CC(N)=O)C(=O)N[C@@H](Cc1c[nH]c2ccccc12)C(=O)N[C@@H](CC(C)C)C(=O)N[C@@H](CC(C)C)C(=O)N[C@@H](C)C(=O)N[C@@H](CCC(N)=O)C(=O)N[C@@H](CCCNC(=N)N)C(N)=O)C(C)C)[C@@H](C)CC` [AT378] (H-EGTFISDYSIAMDRIK([AEEA-AEEA-AEEA-γGlu-C18 diacid])QQDFVNWLLAQR-NH2; N-terminus assumed): 90%, “No Agonism”, 92%, 16 nM and 0%.
With `CC[C@H](C)[C@H](NC(=O)[C@H](CO)NC(=O)[C@H](Cc1ccc(O)cc1)NC(=O)[C@H](CC(=O)O)NC(=O)[C@H](CO)NC(=O)[C@@H](NC(=O)[C@H](Cc1ccccc1)NC(=O)[C@@H](NC(=O)CNC(=O)[C@@H]1CCC(=O)N1)[C@@H](C)O)[C@@H](C)CC)C(=O)N[C@@H](C)C(=O)N[C@@H](CCSC)C(=O)N[C@@H](CC(=O)O)C(=O)N[C@@H](CCCNC(=N)N)C(=O)N[C@H](C(=O)N[C@@H](CCCCNC(=O)CCCCCCCCCCCCCCC(=O)O)C(=O)N[C@@H](CCC(N)=O)C(=O)N[C@@H](CCC(N)=O)C(=O)N[C@@H](CC(=O)O)C(=O)N[C@@H](Cc1ccccc1)C(=O)N[C@H](C(=O)N[C@@H](CC(N)=O)C(=O)N[C@@H](Cc1c[nH]c2ccccc12)C(=O)N[C@@H](CC(C)C)C(=O)N[C@@H](CC(C)C)C(=O)N[C@@H](C)C(=O)N[C@@H](CCC(N)=O)C(=O)N[C@@H](CCCNC(=N)N)C(N)=O)C(C)C)[C@@H](C)CC` [AT390] ([pGlu]GTFISDYSIAMDRIK(C16 diacid)QQDFVNWLLAQR-NH2), the “cAMP antagonism, % inhib” value came out at 81% at human GIP receptor [1] and 100% at human GIP receptor [3]. The results for the IC50 on human GIP receptor [1] and at human GIP receptor [3] were 15.9 nM and 1 nM, respectively. Further, the “cAMP agonism, Emax” value at human GIP receptor [2] is recorded as “No Agonism”. Moreover, the Emax at human GIP receptor [4] stood at 4%.
